Type in all cases: ADME, organism-based
The nature of data set [1]: Clearance in patient with community or hospital-acquired pneumonia at […], iv loading dose followed by […] administered every 12 hrs. Conditions: human, in vivo.
In data set [2] the test system is Homo sapiens. Put plainly: Distributional clearance in patient with community or hospital-acquired pneumonia at […], iv loading dose followed by […] administered every 12 hrs. Conditions: in vivo.
Data set [3] has as its system Homo sapiens. Put plainly: Volume of distribution at steady state in patient with community or hospital-acquired pneumonia at […], iv loading dose followed by […] administered every 12 hrs. Conditions: in vivo.
The nature of data set [4]: Volume of distribution in central compartment in patient with community or hospital-acquired pneumonia at […], iv loading dose followed by […] administered every 12 hrs. The settings on record: human, in vivo, read-out: Vc.

Take `CN(C)c1cc(NC(=O)CNC(C)(C)C)c(O)c2c1C[C@H]1C[C@H]3[C@H](N(C)C)C(O)=C(C(N)=O)C(=O)[C@@]3(O)C(O)=C1C2=O` [TIGECYCLINE]: the clearance in data set [1] is 320 mL/min. In the data set with Homo sapiens [2], the CLd worked out at 85.1 L/h. This molecule also yielded a Vdss in the data set with Homo sapiens [3] of 398 L. The Vd in data set [4] came to 65.2 L.

The record behind these values is ChEMBL document CHEMBL1687817, “Tigecycline population pharmacokinetics in patients with community- or hospital-acquired pneumonia” (Antimicrob Agents Chemother, 2010).
